The values below come from patent publication US20090082399A1, “Carbamate derivatives as positive allosteric modulators of metabotropic glutamate receptors” (Addex Pharma SA, priority 2005, published 2009).

One data set has as its target T1, rat mGluR5 (Rattus norvegicus, UniProt P31424).
T1 construct: expressed in transfected cells
Put plainly: mGluR5 assay on HEK-expressing rat mGluR5 (fluorescent cell based Ca2+ mobilization assay). The settings on record: for activation of rat mGluR5 receptors without co-addition of glutamate: HEK-rat mGluR5 cell line, no added glutamate or mGluR5 agonist; for EC50: HEK-293 cells stably expressing rat mGluR5, no co-addition of glutamate, mean of at least three independent experiments in duplicate, read-out: Ca2+ Flux (mean EC50). As for the experimental part: Positive functional expression of HEK-293 cells stably expressing rat mGluR5 receptor was determined by measuring intracellular Ca^2+ changes using a Fluorometric Imaging Plate Reader (FLIPR, Molecular Devices, Sunnyvale, Calif.) in response to glutamate or selective known mGluR5 agonists and antagonists. Rat mGluR5 RT-PCR products in HEK-293 cells were sequenced and found 100% identical to rat mGluR5 Genbank reference sequence (NM_017012). HEK-293 cells expressing mGluR5 were maintained in media containing DMEM, dialyzed Fetal Bovine Serum (10%), Glutamax™ (2 mM), Penicillin (100 units/ml), Streptomycin (100 μg/ml), Geneticin (100 μg/ml) and Hygromycin-B (40 μg/ml) at 37° C./5% CO2.
After one day of incubation, cells were washed with assay buffer containing: 142 mM NaCl, 6 mM KCl, 1 mM […], 1 mM CaCl2, 20 mM HEPES, 1 g/L glucose, 0.125 mM sulfinpyrazone, pH 7.4. After 60 min of loading with 4 uM Fluo-4 (TefLabs, Austin, Tex.), the cells were washed three times with 50 μl of PBS Buffer and resuspended in 45 μl of assay Buffer. The plates were then transferred to a Fluorometric Imaging Plate Reader (FLIPR, Molecular Devices, Sunnyvale, Calif.) for the assessment of intracellular calcium flux. After monitoring the baseline fluorescence for 10 seconds, increasing concentrations of representative compound (from 0.01 to 60 μM) of the present invention diluted in Assay Buffer (15 μl of 4× dilutions) was added to the cell. The final DMSO concentration in the assay was 0.3%. In each experiment, fluorescence was then monitored as a function of time for 3 minutes and the data analyzed using Microsoft Excel and GraphPad Prism. Each data point was also measured two times.
Under these experimental conditions, this HEK-rat mGluR5 cell line is able to directly detect positive allosteric modulators without the need of co-addition of glutamate or mGluR5 agonist.
The concentration-response curves of representative compounds of the present invention were generated using the Prism GraphPad software (Graph Pad Inc, San Diego, USA). The curves were fitted to a four-parameter logistic equation:
(Y=Bottom+(Top−Bottom)/(1+10̂((Log EC50−X)*Hill Slope)
allowing determination of EC50 values.
The Table 1 below represents the mean EC50 obtained from at least three independent experiments of selected molecules performed in duplicate.

The target in data set [1] is T2, mGluR5 (Rattus norvegicus, UniProt P31424).
T2 construct: positive allosteric modulators of mGluR5 receptors in native preparations; endogenous in cells; host or cells: primary cortical astrocytes from Sprague-Dawley rat embryos (E16-19)
T2 sequence (P31424 21-1203): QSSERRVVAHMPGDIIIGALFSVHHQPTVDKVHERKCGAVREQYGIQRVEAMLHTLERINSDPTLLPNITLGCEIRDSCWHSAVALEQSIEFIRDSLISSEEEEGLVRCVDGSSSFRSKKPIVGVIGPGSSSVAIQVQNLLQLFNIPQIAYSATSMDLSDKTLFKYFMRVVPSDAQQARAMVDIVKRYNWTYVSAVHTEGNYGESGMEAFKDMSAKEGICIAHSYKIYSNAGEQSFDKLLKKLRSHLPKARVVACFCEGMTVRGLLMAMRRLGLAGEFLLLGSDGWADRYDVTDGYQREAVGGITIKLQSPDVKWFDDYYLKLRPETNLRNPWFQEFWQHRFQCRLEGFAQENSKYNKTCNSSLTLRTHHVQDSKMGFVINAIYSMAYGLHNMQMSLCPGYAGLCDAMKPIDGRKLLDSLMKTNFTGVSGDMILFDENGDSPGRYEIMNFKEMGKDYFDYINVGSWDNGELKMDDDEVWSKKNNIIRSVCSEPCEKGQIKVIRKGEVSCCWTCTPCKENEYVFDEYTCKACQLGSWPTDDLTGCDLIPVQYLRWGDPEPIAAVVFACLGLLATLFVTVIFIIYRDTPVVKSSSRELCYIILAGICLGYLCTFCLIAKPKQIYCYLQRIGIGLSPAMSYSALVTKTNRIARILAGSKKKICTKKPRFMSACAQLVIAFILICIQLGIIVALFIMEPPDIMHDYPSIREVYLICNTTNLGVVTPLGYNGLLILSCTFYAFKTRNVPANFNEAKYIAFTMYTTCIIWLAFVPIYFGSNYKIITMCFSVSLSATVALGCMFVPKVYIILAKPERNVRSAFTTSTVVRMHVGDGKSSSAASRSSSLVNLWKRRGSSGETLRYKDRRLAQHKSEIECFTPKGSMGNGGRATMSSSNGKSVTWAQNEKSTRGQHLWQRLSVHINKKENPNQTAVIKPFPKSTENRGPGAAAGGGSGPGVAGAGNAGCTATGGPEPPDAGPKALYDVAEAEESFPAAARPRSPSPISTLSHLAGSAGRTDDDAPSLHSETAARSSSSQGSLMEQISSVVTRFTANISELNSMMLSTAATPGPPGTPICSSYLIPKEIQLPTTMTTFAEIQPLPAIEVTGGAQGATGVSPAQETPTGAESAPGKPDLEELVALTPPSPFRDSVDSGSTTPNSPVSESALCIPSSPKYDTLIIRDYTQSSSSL
The settings on record: cited from earlier work.

The target of data set [2] is T2, mGluR5. Put plainly: mGluR5 binding assay ([3H]-MPEP, rat brain membranes). Particulars: 3 nM [3H]-MPEP, rat cortex membranes, 1 h at 4° C.; read-out: IC50, inhibition of [3H]-MPEP binding. The text has this: Activity of compounds of the invention was examined following a radioligand binding technique using whole rat brain and tritiated 2-methyl-6-(phenylethynyl)-pyridine ([^3H]-MPEP) as a ligand following similar methods than those described in Gasparini F. et al. (2002) Bioorg. Med. Chem. Lett., 12, 407-409 and in Anderson J. F. et al. J. Pharmacol. Exp. Ther. 2002, 303, 3, 1044-1051.
Cortices were dissected out from brains of 200-300 g Sprague-Dawley rats (Charles River Laboratories, L'Arbresle, France). Tissues were homogenized in 10 volumes (vol/wt) of ice-cold 50 mM Hepes-NaOH (pH 7.4) using a Polytron disrupter (Kinematica AG, Luzern, Switzerland) and centrifuged for 30 min at 40,000 g. (4° C.). […] Protein concentration was determined by the Bradford method (Bio-Rad protein assay, Reinach, Switzerland) with bovine serum albumin as standard.
Membranes were thawed and resuspended in binding buffer containing 20 mM HEPES-NaOH, 3 mM MgCl2, 3 mM CaCl2, 100 mM NaCl, pH 7.4. […] Radioactivity was determined by liquid scintillation spectrometry using a 96-well plate reader (TopCount, Perkin-Elmer, Downers Grove, USA).
The inhibition curves were generated using the Prism GraphPad program (Graph Pad Software Inc, San Diego, USA). […] The mean of IC50 obtained from at least three independent experiments of selected molecules performed in duplicate were calculated.

The structures appear in SMILES notation.

T1 sequence (P31424 21-1171 isoform P31424-2 limits assumed): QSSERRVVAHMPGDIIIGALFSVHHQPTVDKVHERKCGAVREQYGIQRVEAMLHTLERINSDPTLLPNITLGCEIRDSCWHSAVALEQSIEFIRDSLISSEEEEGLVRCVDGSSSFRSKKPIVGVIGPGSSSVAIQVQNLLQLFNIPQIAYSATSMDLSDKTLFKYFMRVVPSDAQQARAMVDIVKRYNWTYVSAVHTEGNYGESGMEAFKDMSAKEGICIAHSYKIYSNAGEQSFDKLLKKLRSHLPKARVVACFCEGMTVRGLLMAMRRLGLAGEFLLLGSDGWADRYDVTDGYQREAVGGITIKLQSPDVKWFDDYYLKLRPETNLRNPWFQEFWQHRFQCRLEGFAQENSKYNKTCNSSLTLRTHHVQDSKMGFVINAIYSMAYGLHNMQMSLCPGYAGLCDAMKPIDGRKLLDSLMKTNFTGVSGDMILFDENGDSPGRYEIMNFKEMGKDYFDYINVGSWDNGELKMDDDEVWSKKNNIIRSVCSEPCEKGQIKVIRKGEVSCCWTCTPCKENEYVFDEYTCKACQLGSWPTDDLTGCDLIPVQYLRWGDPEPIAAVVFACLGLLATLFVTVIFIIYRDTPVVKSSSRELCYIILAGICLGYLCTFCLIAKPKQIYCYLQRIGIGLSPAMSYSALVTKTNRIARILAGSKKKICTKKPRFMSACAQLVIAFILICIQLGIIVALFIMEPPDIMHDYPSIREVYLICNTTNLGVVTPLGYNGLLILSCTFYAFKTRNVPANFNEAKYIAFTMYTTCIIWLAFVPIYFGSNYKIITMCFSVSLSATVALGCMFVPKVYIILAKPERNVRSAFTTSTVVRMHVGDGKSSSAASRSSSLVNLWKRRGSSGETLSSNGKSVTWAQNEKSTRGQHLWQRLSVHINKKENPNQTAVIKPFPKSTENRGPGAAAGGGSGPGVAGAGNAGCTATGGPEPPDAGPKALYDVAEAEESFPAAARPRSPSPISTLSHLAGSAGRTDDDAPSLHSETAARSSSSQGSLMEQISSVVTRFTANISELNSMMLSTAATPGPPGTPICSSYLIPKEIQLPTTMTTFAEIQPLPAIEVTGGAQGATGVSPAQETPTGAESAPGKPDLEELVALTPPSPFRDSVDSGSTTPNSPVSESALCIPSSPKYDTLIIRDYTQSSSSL

Take `N#Cc1cccc(C(=O)Nc2cc(-c3ccccc3)nn2-c2ccccc2)c1` [CDPPB, reference compound]: the “activation of rat mGluR5 receptors without co-addition of glutamate” value on rat mGluR5 is “activating”. For the same molecule, the “activity in rat cortical astrocytes culture in the absence of added glutamate” value (from here on “activity”) on mGluR5 [1] was “inactive”.
Regarding `O=C(Nc1ccc(Cl)cc1CN1C(=O)c2ccccc2C1=O)c1ccccc1O` [CPPHA, reference compound], the “activation of rat mGluR5 receptors without co-addition of glutamate” value at rat mGluR5 is reported as “activating”. Further, the “activity” value at mGluR5 [1] was “inactive”.
As to `Fc1cccc(/C=N/N=C/c2cccc(F)c2)c1` [DFB, reference compound], on rat mGluR5, the “activation of rat mGluR5 receptors without co-addition of glutamate” value is “activating”. The “activity” value on mGluR5 [1] was “inactive”.
For the molecule `O=C(Nc1ccc(F)cc1)O[C@H]1CCCN(C(=O)c2ccc(F)cc2)C1` [Example 1, (4-Fluoro-phenyl)-carbamic acid (S)-1-(4-fluoro-benzoyl)-piperidin-3-yl ester], the EC50 at rat mGluR5 was 1000 to 10000 nM. The IC50 on mGluR5 [2] was below 30 µM.
As to `O=C(Nc1ccc(Cl)cc1)O[C@H]1CCCN(C(=O)c2ccc(F)cc2)C1` [Example 2, (4-Chloro-phenyl)-carbamic acid (S)-1-(4-fluoro-benzoyl)-piperidin-3-yl ester], the EC50 at rat mGluR5 was in the range of 1000 to 10000 nM.
For the molecule `COc1ccc(NC(=O)O[C@H]2CCCN(C(=O)c3ccc(F)cc3)C2)cc1` [Example 3, (4-Methoxy-phenyl)-carbamic acid (S)-1-(4-fluoro-benzoyl)-piperidin-3-yl ester], the EC50 at rat mGluR5 lay in the range of 1000 to 10000 nM.
Regarding `O=C(Nc1ccccc1)O[C@H]1CCCN(C(=O)c2ccc(F)cc2)C1` [Example 4, Phenyl-carbamic acid (S)-1-(4-fluoro-benzoyl)-piperidin-3-yl ester], the EC50 on rat mGluR5 was below 1000 nM.
For `O=C(Nc1cccc(F)c1)O[C@H]1CCCN(C(=O)c2ccc(F)cc2)C1` [Example 5, (3-Fluoro-phenyl)-carbamic acid (S)-1-(4-fluoro-benzoyl)-piperidin-3-yl ester], the EC50 on rat mGluR5 is below 1000 nM.
Consider `O=C(Nc1ccccc1F)O[C@H]1CCCN(C(=O)c2ccc(F)cc2)C1` [Example 6, (2-Fluoro-phenyl)-carbamic acid (S)-1-(4-fluoro-benzoyl)-piperidin-3-yl ester], for which the EC50 on rat mGluR5 was below 1000 nM.
`O=C(NC1CCCC1)O[C@H]1CCCN(C(=O)c2ccc(F)cc2)C1` [Example 7, Cyclopentyl-carbamic acid (S)-1-(4-fluoro-benzoyl)-piperidin-3-yl ester]: on rat mGluR5, the EC50 was above 10000 nM.
Still for that read-out and setting: as for `O=C(NC1CCCCC1)O[C@H]1CCCN(C(=O)c2ccc(F)cc2)C1` [Example 8, Cyclohexyl-carbamic acid (S)-1-(4-fluoro-benzoyl)-piperidin-3-yl ester], the figure is 1000 to 10000 nM.
On to `O=C(Nc1ccncc1)O[C@H]1CCCN(C(=O)c2ccc(F)cc2)C1` [Example 9, Pyridin-4-yl-carbamic acid (S)-1-(4-fluoro-benzoyl)-piperidin-3-yl ester], for which the EC50 at rat mGluR5 fell in the range of 1000 to 10000 nM.
`O=C(NCc1ccc(F)cc1)O[C@H]1CCCN(C(=O)c2ccc(F)cc2)C1` [Example 10, (4-Fluoro-benzyl)-carbamic acid (S)-1-(4-fluoro-benzoyl)-piperidin-3-yl ester]: on rat mGluR5, the EC50 was in the range of 1000 to 10000 nM.
The molecule `O=C(Nc1ccc(F)cc1)N[C@H]1CCCN(C(=O)c2ccc(F)cc2)C1` [Example 11, 1-[(S)-1-(4-Fluoro-benzoyl)-piperidin-3-yl]-3-(4-fluoro-phenyl)-urea] registered a melting point of 228 to 231 °C. In addition, the 50% effective concentration (EC50) at rat mGluR5 was in the range of 1000 to 10000 nM.
As to `O=C(Nc1ccccc1)OC1CCN(C(=O)c2ccc(F)cc2)C1` (stereo not drawn) [Example 12, (Phenyl)-carbamic acid-1-(4-fluoro-benzoyl)-pyrrolidin-3-yl ester], the melting point lay within 173 to 175 °C. Moreover, the concentration for a half-maximal effect (EC50) at rat mGluR5 was in the range of 1000 to 10000 nM.

As a reminder, the EC50 is the concentration at which the effect is half-maximal. A word on the IC50: it is the concentration that inhibits the measured activity by half. For orientation: melting point means the temperature, or range, at which the solid turns liquid.
